Source: patent US5344843A, “Cat-1 inhibitors, pharmaceutical compositions and methods of use” (Hoffman-La Roche Inc., priority 1992, dated 1994)
pIC50: −log10 of the molar value. Where a name gives a salt, the structure may show the parent alone.

Experiments:
[1] = target: T1, CAT-1 (carnitine acyltransferase 1) (Rattus norvegicus, UniProt Q63704); test: Secondary Screen--Inhibition of CAT-1 in intact cardiac myocytes (hypoxia-induced increase in long-chain acylcarnitines); format: cell-based; parameters: inhibition: dose or concentration left out as unconfirmed; conditions: isolated rat cardiac myocytes; for pIC50: 50% inhibition of hypoxia-induced increase in long-chain acylcarnitines
T1 construct: This preparation is used as the isolated mitochondrial preparation; from tissue; host or cells: rat heart (atria removed), isolated mitochondria
T1 sequence (Q63704 1-772): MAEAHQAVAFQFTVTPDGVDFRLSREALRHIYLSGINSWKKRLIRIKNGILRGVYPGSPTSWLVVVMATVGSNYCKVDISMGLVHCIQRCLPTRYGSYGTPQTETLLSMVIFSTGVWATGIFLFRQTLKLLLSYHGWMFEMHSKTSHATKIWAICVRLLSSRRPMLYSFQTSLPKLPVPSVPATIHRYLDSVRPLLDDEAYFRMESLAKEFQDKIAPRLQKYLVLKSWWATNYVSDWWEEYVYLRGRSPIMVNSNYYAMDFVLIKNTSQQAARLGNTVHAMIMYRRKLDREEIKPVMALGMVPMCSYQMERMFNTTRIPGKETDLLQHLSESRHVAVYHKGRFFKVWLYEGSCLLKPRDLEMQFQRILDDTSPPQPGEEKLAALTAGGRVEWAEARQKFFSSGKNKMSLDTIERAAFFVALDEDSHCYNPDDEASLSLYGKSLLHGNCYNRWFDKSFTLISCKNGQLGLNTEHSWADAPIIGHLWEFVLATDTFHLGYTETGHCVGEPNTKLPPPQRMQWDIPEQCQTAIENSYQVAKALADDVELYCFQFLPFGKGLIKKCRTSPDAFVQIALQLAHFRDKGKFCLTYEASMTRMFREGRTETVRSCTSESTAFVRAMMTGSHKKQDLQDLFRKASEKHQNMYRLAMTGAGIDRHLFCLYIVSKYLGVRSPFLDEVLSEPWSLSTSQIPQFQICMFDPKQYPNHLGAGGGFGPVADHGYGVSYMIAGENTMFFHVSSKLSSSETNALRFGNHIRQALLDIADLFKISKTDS
Procedure: Secondary Screen--Inhibition of CAT-1 in intact Cardiac Myocytes
(a) Preparation of Isolated Rat Cardiac Myocytes
Four hearts are excised from anesthetized rats and perfused retrogradly via the Langendorf technique. Each heart receives 100 mL of Krebs (NaCl, 118.4 mM; KCL, 4.6 mM; NaH2 PO4, 1.0 mM; NaHCO3, 20 mM; MgSO4, 2 mM; CaCl2, 50 μM; glucose, 11.0 mM), 100 mL of Ca++ free Krebs and finally 100 mL of 0.5% collagenase (Boehringer Mannhelm, type 1) in Hepes (NaCl, 115 mM; KCl, 5 mM; sucrose, 35 mM; glucose, 10 mM; Hepes, 10 mM; taurine, 4 mM; MgSO4, 2 mM; CaCl2, 50 μM). After these perfusions, the hearts are chopped into pieces, approx. 0.5 cm×0.5 cm and placed in four 125 mL plastic bottles along with 25 mL of collagenase/Hepes situated in a water bath maintained at 35° C. The pieces of cardiac tissue in each bottle are agitated by using a Harvard respirator connected to four glass syringes, which sucks the tissue up and down each tube during each respiratory cycle. After fifteen minutes, the collagenase/Hepes is removed and replaced with fresh collegenase/Hepes and the process repeated. The collegenase/Hepes from the subsequent fifteen minute harvests are centrifuged at 500 g to pellet the cells which are then resuspended in Hepes buffer. After six harvests, all cells are pelleted, resuspended in 2×26.5 mL of Hepes plus BSA (350 mg) and layered on top of 2×percoll gradients (21.15 mL percoll, 2.35 mL NaCl, 6 drops acetic acid). This is centfifuged at 3000 g for eight minutes forming a percoll gradient which results in viable cells being separated from damaged cells. The viable cells are removed, washed with Hepes and finally resuspended in 25 mL of Hepes.
The isolated cardiac myocytes (2 mL; approximately 1×10^6 cells) are separated into six glass pods. Into four of these are placed selected concentrations of the compound to be tested, and the cells are incubated for twenty minutes, after which the pods are centrifuged at 300 g for three minutes. 300 μL of normoxic Hepes is placed in one of the pods not containing compound and then all pods are placed in a hypoxic chamber (N2 atmosphere). Oxygen is fed via small bore steel tubes to the pod containing the normoxic buffer, while the other five pods receive pre-purified argon (99.998% pure). After two minutes, Hepes (pre-gassed with argon for at least twelve hours) is fed into the five hypoxic pods. This hypoxic environment (pO2 <10 mm Hg) is maintained for twenty minutes, after which the cells and pods are frozen by contact with a metal block precooled in liquid N2. The pods are then removed from the chamber and stored at -70° C. The carnitine assay is performed, as described below in (c), to determine the amount of long-chain acylcarnitine in the cells from the normoxic, hypoxic and hypoxic plus compound samples. […] Thus the IC50 in this screen is the concentration of test compound which produces a 50% inhibition of the hypoxia-induced increase in long-chain acylcarnitines.
(c) Long-chain Acylcarnitine Assay.
The frozen cell samples are thawed, mixed and homogenized with 40 μL of 70% PCA. The homogenate is transferred to eppendorf tubes while the homogenization tube and the glass pod is rinsed with 500 μL of 7% PCA, with the rinse being added to the eppendorf tube. This is then centrifuged at 1000 g for two minutes to pellet the precipitate (containing the long-chain acylcarnitine) and the supernatant is discarded. The pellet is washed twice with 500 μL of 7% PCA, the supernatants being discarded. The pellet is then hydrolyzed (to separate the acyl unit from carnitine to yield free carnitine) by the addition of 200 μL of aleionized H2 O and 50 μL of 5N KOH and incubated at 70° C. for ninety minutes.

[2] = target: T1, CAT-1 (carnitine acyltransferase 1); test: Primary Screen--Inhibition of CAT-1 in isolated mitochondria; format: biochemical; conditions: rat heart mitochondria, reduction of palmitoyl carnitine formation by 50%; read-out: Primary Screen IC50

| pIC50 [1] | pIC50 [2] | inhibition at 25 µM ([1]; @ 25 μM, hypoxia) [%] | inhibition ([1]; hypoxia) [%] | SMILES |
| --- | --- | --- | --- | --- |
| 5.15 | 6.08 |  |  | O=C(O)C(=O)c1c(F)cc(OCCOc2ccc3ccccc3c2)cc1F [Example 201, 2,6-difluoro-4-[2-(2-naphthalenyloxy)ethoxy]-alpha-oxobenzeneacetic acid] |
|  | 5.14 | 35 |  | O=C(O)C(=O)c1c(F)c(F)c(OCCOc2ccc3ccccc3c2)c(F)c1F [Example 205, 2,3,5,6-tetrafluoro-4-[2-(2-naphthalenyloxy)ethoxy]-alpha-oxobenzeneaceticacid] |
| 6.00 | 5.05 |  |  | CC(C)c1cccc(-c2ccc(F)cc2)c1/C=C/COc1ccc(C(=O)C(=O)O)cc1 [Example 229, (E)-4-[3-[4'-fluoro-3-(1-methylethyl)[1,1'-biphenyl]-2-yl]-2-propenyloxy]-alpha-oxobenzeneacetic acid] |
|  | 7.22 |  | 33 | O=C(O)C(=O)c1ccc(OCC(=O)N2CCC(c3ccccc3)CC2)cc1 [Example 245, alpha-oxo-4-[2-oxo-2-(4-phenyl-1-piperidinyl)ethoxy]benzeneacetic acid] |
| 4.52 | 6.40 |  |  | O=C(COc1ccc(C(=O)C(=O)O)cc1)NC1CCCCCCC1 [Example 247, 4-[2-(cyclooctylamino)-2-oxoethoxy]-alpha-oxobenzeneacetic acid] |
| 7.00 | 6.42 |  |  | CCCc1c(OCCCOc2ccc(C(=O)C(=O)O)cc2)ccc(C(C)=O)c1O [Example 257, 4-[3-(4-acetyl-3-hydroxy-2-propylphenoxy)propoxy]-alpha-oxobenzeneacetic acid] |
|  | 5.40 |  | 94 | O=C(O)C(=O)c1ccc(OCCCCCCc2cccc(O)c2O)cc1 [Example 260, 4-[6-(2,3-dihydroxyphenyl)hexyloxy]-alpha-oxobenzeneacetic acid] |
|  | 6.00 |  | 99 | O=C(O)C(=O)c1ccc(OCCCn2c(=O)c3ccccc3c3ccccc32)cc1 [Example 262, 4-[3-(5,6-dihydro-6-oxo-5-phenanthridinyl)propoxy]-alpha-oxobenzeneacetic acid] |
| 5.10 | 6.40 |  |  | O=C(O)C(=O)c1ccc(OCCCC(=O)c2ccc3ccccc3c2)cc1 [Example 282, 4-[[4-(2-naphthalenyl)-4-oxobutyl]oxy]-alpha-oxobenzeneacetic acid] |
| 6.10 | 7.52 |  |  | O=C(O)C(=O)c1ccc(OCC(=O)c2cccc3ccccc23)cc1 [Example 284, 4-[2-(1-naphthalenyl)-2-oxoethoxy]-alpha-oxobenzeneacetic acid] |
| 5.92 | 6.52 |  |  | CC(C)(C)c1ccc(C(=O)COc2ccc(C(=O)C(=O)O)cc2)cc1 [Example 286] |

Second part, the compound before the results:

| SMILES | pIC50 [1] | pIC50 [2] | inhibition at 25 µM ([1]; @ 25 μM, hypoxia) [%] | inhibition ([1]; hypoxia) [%] |
| --- | --- | --- | --- | --- |
| O=C(O)C(=O)c1ccc(OCCOC23CC4CC(CC(C4)C2)C3)cc1 [Example 103, alpha-oxo-4-[[2-[tricyclo(3.3.1.1-3,7)dec-1-yloxy]ethyl]oxy]benzeneacetic acid] | 4.40 | 5.82 |  |  |
| O=C(OCCOCCOCCO)C(=O)c1ccc(OCCOc2ccc3ccccc3c2)cc1 [Example 105, 4-[[2-(2-naphthalenyloxy)ethyl]oxy]-alpha-oxobenzeneacetic acid 2-[2-(2-hydroxyethoxy)ethoxy]ethyl ester] | 4.12 | 7.40 |  |  |
| CN(C)CCOC(=O)C(=O)c1ccc(OCCOc2ccc3ccccc3c2)cc1 [Example 106, 4-[[2-(2-naphthalenyloxy)ethyl]oxy]-alpha-oxobenzeneacetic acid 2-(dimethylamino)ethyl ester] | 6.00 | 7.05 |  |  |
| CCC(C)(C)C(=O)Oc1cccc2ccc(OCCOc3ccc(C(=O)C(=O)O)cc3)cc12 [Example 134, 4-[[2-[8-(2,2-dimethyl-1-oxobutoxy)-2-naphthalenyloxy]ethyl]oxy]-alpha-oxobenzeneacetic acid] | 6.40 | 6.22 |  |  |
| CCC(C)(C)C(=O)OCc1cccc(C)c1OCCOc1ccc(C(=O)C(=O)O)cc1 [Example 136, 4-[[2-[2-[(2,2-Dimethyl-1-oxobutoxy)methyl]-6-methylphenoxy]ethyl]oxy]-alpha-oxobenzeneacetic acid (2:1) hydrate] | 6.05 | 5.11 |  |  |
| O=C(O)C(=O)c1ccc(C#CCOc2ccc3ccccc3c2)cc1 [Example 142, 4-[3-(2-naphthalenyloxy)-1-propynyl]-alpha-oxobenzeneacetic acid] | 4.70 | 5.74 |  |  |
| O=C(O)C(=O)c1ccc(CCCOc2ccc3ccccc3c2)cc1 [Example 143, 4-[3-(2-naphthalenyloxy)propyl]-alpha-oxobenzeneacetic acid] | 4.92 | 5.57 |  |  |
| O=C(O)C(=O)c1ccc(OCC(=O)c2ccc3ccccc3c2)cc1 [Example 157, 4-[2-(2-naphthalenyl)-2-oxoethoxy]-alpha-oxobenzeneacetic acid] | 6.52 | 7.30 |  |  |
| O=C(O)C(=O)c1ccc(SCCOC2CCCCCCC2)cc1 [Example 173, 4-[[2-(cyclooctyloxy)ethyl]thio]-alpha-oxobenzeneacetic acid] | 6.52 | 6.10 |  |  |
| CCC(C)(C)C(=O)OCc1cccc(C)c1OCCSc1ccc(C(=O)C(=O)O)cc1 [Example 175, 4-[[2-[2-[(2,2-dimethyl-1-oxobutoxy)methyl]-6-methylphenoxy]ethyl]thio]-alpha-oxobenzeneacetic acid] | 6.70 | 6.30 |  |  |
| O=C(O)C(=O)c1ccc(C(=O)NCCOc2ccc3ccccc3c2)cc1 [Example 177, 4-[[[2-(2-naphthalenyloxy)ethyl]amino]carbonyl]-alpha-oxobenzeneacetic acid] | 4.60 | 6.40 |  |  |
| O=C(O)C(=O)c1ccc(OCCOc2ccc3ccccc3c2)c([N+](=O)[O-])c1 [Example 179, 4-[2-(2-naphthalenyloxy)ethoxy]-3-nitro-alpha-oxobenzeneacetic acid] | 5.10 | 6.70 |  |  |
| Cc1cc(C(=O)C(=O)O)ccc1OCCOc1ccc2ccccc2c1 [Example 181, 3-methyl-4-[2-(2-naphthalenyloxy)ethoxy]-alpha-oxobenzeneacetic acid] | 5.12 | 6.40 |  |  |
| O=C(O)C(=O)c1ccc(OCCOc2ccc3ccccc3c2)c(Cl)c1 [Example 185, 3-chloro-4-[2-(2-naphthalenyloxy)ethoxy]-alpha-oxobenzeneacetic acid] | 4.92 | 7.10 |  |  |
| O=C(O)C(=O)c1ccc(OCCOc2ccc3ccccc3c2)cc1Cl [Example 187, 2-chloro-4-[2-(2-naphthalenyloxy)ethoxy]-alpha-oxobenzeneacetic acid] | 5.05 | 6.52 |  |  |
| O=C(O)C(=O)c1ccc(OCCOc2ccc3ccccc3c2)cc1F [Example 197, 2-fluoro-4-[2-(2-naphthalenyloxy)ethoxy]-alpha-oxobenzeneacetic acid] | 5.22 | 6.80 |  |  |
| O=C(O)C(=O)c1ccc(OCCOc2ccc3ccccc3c2)c(F)c1 [Example 199, 3-fluoro-4-[2-(2-naphthalenyloxy)ethoxy]-alpha-oxobenzeneacetic acid] | 6.22 | 6.77 |  |  |
| CCC(C)(C)C(=O)OCc1cccc(C)c1C#CCOc1ccc(C(=O)C(=O)O)cc1 [Example 212, 4-[3-[2-[(2,2-dimethyl-1-oxobutoxy)methyl]-6-methylphenyl]-2-propynyloxy]-alpha-oxobenzeneacetic acid (1:1) morpholine salt] |  | 6.33 |  | 47 |
| CCC(C)(C)C(=O)OCc1cccc(C)c1/C=C\COc1ccc(C(=O)C(=O)O)cc1 [Example 215, (Z)-4-[3-[2-(2,2-dimethyl-1-oxobutoxy)methyl]-6-methylphenyl]-2-propenyloxy]-alpha-oxobenzeneacetic acid (1:1) morpholine salt] | 5.05 | 5.70 |  |  |
| CCC(C)(C)C(=O)OCc1cccc(C)c1/C=C/COc1ccc(C(=O)C(=O)O)cc1 [Example 220, (E)-4-[3-[2-[(2,2-dimethyl-1-oxobutoxy)methyl]-6-methylphenyl]-2-propenyloxy]-alpha-oxobenzeneacetic acid] | 7.05 | 5.80 |  |  |
| CCC(C)(C)C(=O)OCc1cccc(C)c1CCCOc1ccc(C(=O)C(=O)O)cc1 [Example 223, 4-[3-[2-[(2,2-dimethyl-1-oxobutoxy)methyl]-6-methylphenyl]propoxy]-alpha-oxobenzeneacetic acid] | 7.05 | 5.96 |  |  |
| CCC(C)(C)C(=O)OCc1cccc(C)c1OCCOc1ccc([C@H](N)C(=O)O)cc1 [Example 298, (S)-alpha-amino-4-[2-[2-[(2,2-dimethyl-1-oxobutoxy)methyl]-6-methylphenoxy]ethoxy]benzeneacetic acid] | 4.52 | 5.60 |  |  |
